Test results as given in PMC9296036, “A peptide interfering with the dimerization of oncogenic KITENIN protein and its stability suppresses colorectal tumour progression” (Clinical and Translational Medicine, 2022).
Ends that are not written are not given here.

Tested on: CT-26/iRFP/KITENIN-V5 liver metastases
Experiment: Intrasplenic hepatic metastasis model, CT-26/iRFP/KITENIN-V5 cells in syngeneic mice
Type: in vivo, mouse
Protocol: For hepatic metastasis analysis, 5‐ to 6‐week‐old Balb/c mice were obtained from OrientBio, Inc. (Seongnam, Korea) and housed in metal cages with free access to water and food. A syngeneic mouse model of colorectal liver metastasis was established by an infusion of tumour cells into the portal system via intrasplenic injection.[27] In brief, CT‐26/KITENIN‐iRFP‐expressing cells (2 × 10^5 cells/mouse) were injected into the spleen. Splenectomy was performed 15 min after an injection of CT‐26 cells. Mice were randomly assigned to two groups: scrambled peptide and KDIP (1, 5 mg/kg). Each peptide was given via intravenous injection six times for 2 weeks after 7 days of inoculation of tumour cells. Metastatic tumour nodules in the liver with a diameter of >1.0 mm were counted using a microscope, and a metastasis score was allocated based on nodule size as follows: 0 (no gross metastasis), 1 (tumour size >1 mm), 2 (tumour size 1 >5 mm) and 3 (tumour size >10 mm). The metastasis score was obtained by multiplying the number and the score of nodules. Fluorescence images of liver nodules expressing iRFP were taken using a Fluorescence‐labelled Organism Bioimaging Instrument (Cellgentek, Korea) and total fluorescence emitted from liver nodules was measured and compared between groups.
Effect of KAI1 C‐terminal interacting tetraspanin (KITENIN) dimerization‐interfering peptide (KDIP) on tumour growth and metastasis in in vivo mouse model of colorectal cancer (CRC). (A) Treatment with KDIP decreases cell invasion of KITENIN‐overexpressing CT‐26 cells. Cell invasion assay was performed in CT‐26 cells transfected with KITENIN and treated with scr‐peptide or KDIP (1 μM) (upper panel). […] For the evaluation of metastasis, total fluorescence emitted from liver nodules expressing iRFP was measured and counted (left panel) or metastatic tumour growth was counted as nodules that migrated to the surface of the liver, and a metastatic score was obtained by multiplying it with size (middle panel). Metastatic score or total fluorescence is represented as mean ± SEM. […]

[1] = KDIP 5 mg/kg versus scrambled peptide, immunoblot densitometry, n = 6

Which results are given for YARVRRRGPRRWRLVSDEAV [KDIP]?
fluorescence of the hepatic nodule (liver metastasis, in words) (KDIP 5 mg/kg intravenously for 2 weeks, compared with scramble peptide group): significantly reduced; KITENIN level in metastatic liver nodules (in words) [1]: significantly decreased; protein level of Myo10 in metastatic liver nodules (in words) [1]: significantly decreased
